Target: T1, rat metabotropic glutamate receptor 5 (rmGluR5) (Rattus norvegicus, UniProt P31424)
T1 construct: expressed in transfected cells
Experiment: Calcium mobilization (FLIPR) assay for negative allosteric modulation, EC80 glutamate, rmGluR5 in HEK 293
Format: cell-based
Settings: HEK293; rmGluR5, inhibition of EC80 glutamate response; read-out: FLIPR maximum inhibition
Experimental: The cDNA for rat metabotropic glutamate receptor 5 (rmGluR5) and the cDNA for human metabotropic glutamate receptor 5 (hmGluR5) were generous gifts from S. Nakanishi (Kyoto University, Kyoto, Japan). The rmGluR5 or hmGluR5 was stably expressed in a HEK 293 cell line and grown in Dulbecco's Modified Eagle Medium (DMEM) (Invitrogen, Carlsbad, Calif.) with supplements (10% bovine calf serum, 4 mM glutamine, 100 units/mL penicillin, 100 μg/mL streptomycin and 0.75 mM G1418) at 37° C., 5% CO2. Twenty-four hours prior to assay, cells were seeded into 384-well black wall microtiter plates coated with poly-D-lysine. Just prior to assay, media was aspirated and cells dye-loaded (25 μL/well) with 3 μM Fluo-4/0.01% pluronic acid in assay buffer (Hank's Balanced Saline Solution (HBSS)): 150 mM NaCl, 5 mM KCl, 1 mM CaCl2, 1 mM MgCl2, plus 20 mM N-2-Hydroxyethylpiperazine-N′-2-ethanesulfonic acid (HEPES), pH 7.4, 0.1% bovine serum albumin (BSA) and 2.5 mM probenicid) for 1 hour in 5% CO2 at 37° C. After excess dye was discarded, cells were washed in assay buffer and layered with a final volume equal to 30 μL/well. Basal fluorescence is monitored in a fluorometric imaging plate reader (FLIPR) (Molecular Devices, Sunnyvale, Calif.) with an excitation wavelength of 488 nm and an emission range of 500 to 560 nm. Laser excitation energy was adjusted so that basal fluorescence readings were approximately 10,000 relative fluorescent units. Cells were stimulated with an EC20 or an EC80 concentration of glutamate in the presence of a compound to be tested, both diluted in assay buffer, and relative fluorescent units were measured at defined intervals (exposure=0.6 sec) over a 3 min period at room temperature. Basal readings derived from negative controls were subtracted from all samples. Maximum change in fluorescence was calculated for each well. Concentration-response curves derived from the maximum change in fluorescence were analyzed by nonlinear regression (Hill equation). A negative modulator can be identified from these concentration-response curves if a compound produces a concentration dependent inhibition of the EC80 glutamate response.

T1 sequence (P31424 21-1203): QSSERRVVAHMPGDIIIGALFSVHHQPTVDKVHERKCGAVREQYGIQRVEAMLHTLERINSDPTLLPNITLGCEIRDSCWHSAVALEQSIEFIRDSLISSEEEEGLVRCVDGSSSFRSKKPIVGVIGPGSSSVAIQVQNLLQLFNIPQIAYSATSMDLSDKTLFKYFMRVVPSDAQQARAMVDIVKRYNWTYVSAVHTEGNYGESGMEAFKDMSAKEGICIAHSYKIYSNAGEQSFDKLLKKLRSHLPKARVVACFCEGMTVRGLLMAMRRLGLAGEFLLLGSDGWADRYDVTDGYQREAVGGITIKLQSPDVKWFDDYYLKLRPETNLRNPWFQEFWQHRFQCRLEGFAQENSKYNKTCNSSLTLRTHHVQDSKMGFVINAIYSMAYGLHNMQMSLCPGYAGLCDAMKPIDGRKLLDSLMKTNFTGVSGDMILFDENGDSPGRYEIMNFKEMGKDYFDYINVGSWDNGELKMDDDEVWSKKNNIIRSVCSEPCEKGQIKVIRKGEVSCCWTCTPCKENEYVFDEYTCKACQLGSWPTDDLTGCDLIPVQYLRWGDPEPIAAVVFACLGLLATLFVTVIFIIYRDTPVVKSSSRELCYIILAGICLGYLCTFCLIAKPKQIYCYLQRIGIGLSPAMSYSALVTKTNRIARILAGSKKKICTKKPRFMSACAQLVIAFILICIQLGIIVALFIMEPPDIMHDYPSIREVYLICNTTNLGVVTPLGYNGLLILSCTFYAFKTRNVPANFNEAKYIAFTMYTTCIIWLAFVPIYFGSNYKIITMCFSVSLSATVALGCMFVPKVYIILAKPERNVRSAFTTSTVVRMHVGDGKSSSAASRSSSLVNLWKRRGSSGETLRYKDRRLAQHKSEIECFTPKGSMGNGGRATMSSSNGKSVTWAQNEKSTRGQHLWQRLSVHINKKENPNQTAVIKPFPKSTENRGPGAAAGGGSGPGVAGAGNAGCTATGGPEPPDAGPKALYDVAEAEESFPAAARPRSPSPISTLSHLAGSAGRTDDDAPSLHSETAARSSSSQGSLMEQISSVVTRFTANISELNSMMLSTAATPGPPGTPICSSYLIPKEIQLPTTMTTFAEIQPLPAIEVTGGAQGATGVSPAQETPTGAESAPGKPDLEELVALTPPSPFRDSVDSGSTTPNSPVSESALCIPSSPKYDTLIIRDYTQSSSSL

Emax, 81 to 99%:
Cc1ccnc(N2CC[C@]3(CCC[C@H](NC(=O)c4ccccn4)C3)C2=O)n1 (relative stereo) [Example 29, cis-Pyridine-2-carboxylic acid [2-(4-methyl-pyrimidin-2-yl)-1-oxo-2-aza-spiro [4.5]dec-7-yl]-amide]
Cc1ccnc(N2CC[C@]3(CCC[C@H](NC(=O)c4cccc(F)c4)C3)C2=O)n1 (relative stereo) [Example 37, cis-3-Fluoro-N-[2-(4-methyl-pyrimidin-2-yl)-1-oxo-2-aza-spiro[4.5]dec-7-yl]-benzamide]
Cc1cc(N2CC[C@]3(CCC[C@H](NC(=O)c4cccc(C)n4)C3)C2=O)ccn1 (relative stereo) [Example 52, cis-6-Methyl-pyridine-2-carboxylic acid [2-(2-methyl-pyridin-4-yl)-1-oxo-2-aza-spiro[4.5]dec-7-yl]-amide]
Cc1cccc(C(=O)N[C@H]2CCC[C@]3(CCN(c4ccccc4)C3=O)C2)n1 (relative stereo) [Example 46, cis-6-Methyl-pyridine-2-carboxylic acid (1-oxo-2-phenyl-2-aza-spiro[4.5]dec-7-yl)-amide]
Cc1ccc(N2CC[C@]3(CCC[C@H](NC(=O)c4cccc(C)n4)C3)C2=O)nc1 (relative stereo) [Example 49, cis-6-Methyl-pyridine-2-carboxylic acid [2-(5-methyl-pyridin-2-yl)-1-oxo-2-aza-spiro[4.5]dec-7-yl]-amide]
O=C(N[C@H]1CCC[C@]2(CCN(c3cccc(Cl)c3)C2=O)C1)c1cnccn1 (relative stereo) [Example 13, cis-Pyrazine-2-carboxylic acid [2-(3-chloro-phenyl)-1-oxo-2-aza-spiro[4.5]dec-7-yl]-amide]
Cc1cccc(N2CC[C@]3(CCC[C@H](NC(=O)c4cccc(F)c4)C3)C2=O)n1 (racemic) [Example 27, cis-3-Fluoro-N-[2-(6-methyl-pyridin-2-yl)-1-oxo-2-aza-spiro[4.5]dec-7-yl]-benzamide]
Cc1cncc(C(=O)N[C@H]2CCC[C@]3(CCN(c4cccc(F)c4)C3=O)C2)n1 (relative stereo) [Example 21, cis-6-Methyl-pyrazine-2-carboxylic acid [2-(3-fluoro-phenyl)-1-oxo-2-aza-spiro [4.5]dec-7-yl]-amide]
Cc1cccc(C(=O)N[C@H]2CCC[C@]3(CCN(c4cc(F)cc(F)c4)C3=O)C2)n1 (racemic) [Example 42, cis-6-Methyl-pyridine-2-carboxylic acid [2-(3,5-difluoro-phenyl)-1-oxo-2-aza-spiro[4.5]dec-7-yl]-amide]
O=C(N[C@H]1CCC[C@]2(CCN(c3ccc(F)cn3)C2=O)C1)c1ccccn1 (relative stereo) [Example 33, cis-Pyridine-2-carboxylic acid [2-(5-fluoro-pyridin-2-yl)-1-oxo-2-aza-spiro [4.5]dec-7-yl]-amide]
O=C(N[C@H]1CCC[C@]2(CCN(c3ccc(F)cn3)C2=O)C1)c1cccc(F)c1 (relative stereo) [Example 35, cis-3-Fluoro-N-[2-(5-fluoro-pyridin-2-yl)-1-oxo-2-aza-spiro[4.5]dec-7-yl]-benzamide]
Cc1cccc(N2CC[C@]3(CCC[C@H](NC(=O)c4cccc(C)n4)C3)C2=O)c1 (relative stereo) [Example 47, cis-6-Methyl-pyridine-2-carboxylic acid (1-oxo-2-m-tolyl-2-aza-spiro[4.5]dec-7-yl)-amide]
N#Cc1cccc(N2CC[C@]3(CCC[C@H](NC(=O)c4cccc(Cl)c4)C3)C2=O)c1 (relative stereo) [Example 16, cis-N-[2-(3-Cyano-phenyl)-1-oxo-2-aza-spiro[4.5]dec-7-yl]-3-chloro-benzamide]
Cc1nccc(C(=O)N[C@H]2CCC[C@]3(CCN(c4ccc(F)cn4)C3=O)C2)n1 (relative stereo) [Example 57, cis-2-Methyl-pyrimidine-4-carboxylic acid [2-(5-fluoro-pyridin-2-yl)-1-oxo-2-aza-spiro [4.5]dec-7-yl]-amide]
Cc1cccc(N2CCC3(CCCC(NC(=O)c4cccc(Cl)c4)C3)C2=O)n1 (stereo not drawn) [Example 8, 3-Chloro-N-[2-(6-methyl-pyridin-2-yl)-1-oxo-2-aza-spiro[4.5]dec-7-yl]-benzamide]
Cc1cccc(N2CC[C@]3(CCC[C@H](NC(=O)c4ccccn4)C3)C2=O)n1 (relative stereo) [Example 7, cis-Pyridine-2-carboxylic acid [2-(6-methyl-pyridin-2-yl)-1-oxo-2-aza-spiro [4.5]dec-7-yl]-amide]
O=C(N[C@H]1CCC[C@]2(CCN(c3cccc(F)c3)C2=O)C1)c1ccccn1 (racemic) [Example 19, cis-Pyridine-2-carboxylic acid [2-(3-fluoro-phenyl)-1-oxo-2-aza-spiro[4.5]dec-7-yl]-amide]
Cc1cncc(C(=O)N[C@H]2CCC[C@]3(CCN(c4cccc(Cl)c4)C3=O)C2)n1 (relative stereo) [Example 12, cis-6-Methyl-pyrazine-2-carboxylic acid [2-(3-chloro-phenyl)-1-oxo-2-aza-spiro [4.5]dec-7-yl]-amide]
Cc1cccc(C(=O)N[C@H]2CCC[C@]3(CCN(c4ccc(F)cn4)C3=O)C2)n1 (relative stereo) [Example 31, cis-6-Methyl-pyridine-2-carboxylic acid [2-(5-fluoro-pyridin-2-yl)-1-oxo-2-aza-spiro[4.5]dec-7-yl]-amide]
O=C(N[C@H]1CCC[C@@]2(CCN(c3cccc(F)c3)C2=O)C1)c1ccccn1 (relative stereo) [Example 20, trans-Pyridine-2-carboxylic acid [2-(3-fluoro-phenyl)-1-oxo-2-aza-spiro [4.5]dec-7-yl]-amide]
Cc1cccc(C(=O)N[C@H]2CCC[C@]3(CCN(c4cncc(C)n4)C3=O)C2)n1 (relative stereo) [Example 40, cis-6-Methyl-pyridine-2-carboxylic acid [2-(6-methyl-pyrazin-2-yl)-1-oxo-2-aza-spiro[4.5]dec-7-yl]-amide]
Cc1cccc(C(=O)N[C@H]2CCC[C@]3(CCN(c4nccc(C)n4)C3=O)C2)n1 (relative stereo) [Example 34, cis-6-Methyl-pyridine-2-carboxylic acid [2-(4-methyl-pyrimidin-2-yl)-1-oxo-2-aza-spiro[4.5]dec-7-yl]-amide]
Cc1cccc(C(=O)N[C@H]2CCC[C@]3(CCN(c4ccccc4F)C3=O)C2)n1 (relative stereo) [Example 51, cis-6-Methyl-pyridine-2-carboxylic acid [2-(2-fluoro-phenyl)-1-oxo-2-aza-spiro[4.5]dec-7-yl]-amide]
O=C(N[C@H]1CCC[C@]2(CCN(c3cc(F)cc(F)c3)C2=O)C1)c1ccccn1 (relative stereo) [Example 54, cis-Pyridine-2-carboxylic acid [2-(3,5-difluoro-phenyl)-1-oxo-2-aza-spiro [4.5]dec-7-yl]-amide]
Cn1ccc(C(=O)N[C@H]2CCC[C@]3(CCN(c4cccc(Cl)c4)C3=O)C2)n1 (relative stereo) [Example 14, cis-1-Methyl-1H-pyrazole-3-carboxylic acid [2-(3-chloro-phenyl)-1-oxo-2-aza-spiro[4.5]dec-7-yl]-amide]
O=C(N[C@H]1CCC[C@@]2(CCN(c3cccc(Cl)c3)C2=O)C1)c1ccccn1 [Example 1, trans-Pyridine-2-carboxylic acid [2-(3-chloro-phenyl)-1-oxo-2-aza-spiro[4.5]dec-7-yl]amide]
O=C(N[C@H]1CCC[C@]2(CCN(c3cc(F)ccn3)C2=O)C1)c1cccc(F)c1 (relative stereo) [Example 36, cis-3-Fluoro-N-[2-(4-fluoro-pyridin-2-yl)-1-oxo-2-aza-spiro[4.5]dec-7-yl]-benzamide]
Cc1cccc(N2CC[C@@]3(CCC[C@H](NC(=O)c4cccc(F)c4)C3)C2=O)n1 (relative stereo) [Example 24, trans-3-Fluoro-N-[2-(6-methyl-pyridin-2-yl)-1-oxo-2-aza-spiro[4.5]dec-7-yl]-benzamide]
O=C(N[C@H]1CCC[C@]2(CCN(c3ccccn3)C2=O)C1)c1cccc(F)c1 (relative stereo) [Example 26, 3-Fluoro-N-(1-oxo-2-pyridin-2-yl-2-aza-spiro[4.5]dec-7-yl)-benzamide]
Cc1cccc(C(=O)N[C@H]2CCC[C@]3(CCN(c4ccccn4)C3=O)C2)n1 [Example 45, 6-Methyl-pyridine-2-carboxylic acid (1-oxo-2-pyridin-2-yl-2-aza-spiro[4.5]dec-7-yl)-amide]
